Assay: gradient 5% acetonitrile 3 min, to 50% in 2 min, to 85% in 15 min, held 3 min, 100 µL/min
Conditions: column: Zorbax Extend-C18 2.1 x 50 mm; eluents: water / acetonitrile, 0.1% formic acid
Summary of the method: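 Using water and acetonitrile that each contained 0.1% formic acid, mixtures of ~100 pure standards were separated at 100 μL/min on a Zorbax Extend-C18 column (2.1 × 50 mm, 1.8 μm). The HPLC fed a quadrupole time-of-flight mass spectrometer working in positive and negative ionization mode, with dead and dwell volumes of 40 μL and 900 μL. Data were acquired over 3 months. Retention time was read from computationally picked adduct peaks after manual inspection of each.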

| SMILES | RP-LC retention time |
| --- | --- |
| Cc1ccc(CNC(=O)C2(C)CCCN(C(=O)Nc3cccc(F)c3)C2)cc1 (stereo unspecified) | 967 s |
| COCCN1CCC(N2CCN(C(=O)c3ccsc3)CC2)C1=O (stereo unspecified) | 515 s |
| COC(=O)CNC(=O)c1cc2c(=O)n(CC(C)C)c3ccccc3n2n1 | 807 s |
| COc1cc2c(cc1CNC(=O)COc1ccc(Br)cc1)OCCCO2 | 957 s |
| CCN1C(=O)CC[C@]2(CN(C)C(=O)Cc3cccc(F)c3)CCC[C@@H]12 | 752 s |
| COC(=O)c1[nH]c(C)c(C(=O)C(C)N(C(=O)c2ccc(C)cc2)C2CCCCC2)c1C (stereo unspecified) | 1050 s |
| COC(=O)c1ccc(C(=O)NCC(c2ccccc2Cl)N(C)C)cc1 (stereo unspecified) | 560 s |
| Cc1ccc(NC(=O)Cn2cnc3nc(N4CCCC(C(=O)NC(C)C)C4)sc3c2=O)c(F)c1 (stereo unspecified) | 701 s |
| CCN1C(=O)C2(CCN(S(=O)(=O)c3ccc(Cl)c(C)c3)CC2)c2ccccc21 | 1100 s |
| CCC(C)NC(=O)C1CCN(S(C)(=O)=O)c2cc(Cl)ccc2O1 (stereo unspecified) | 862 s |
| COc1ccc2[nH]c3c(C)c4ccncc4c(C)c3c2c1 | 658 s |
| O=c1ccn(-c2ccc(Cl)cc2)nc1-c1nc(-c2ccc3c(c2)OCO3)no1 | 913 s |
| CCn1cc(-c2nc(C(=O)Nc3ccc(C)c(F)c3)cs2)c2cccnc21 | 987 s |
| CC(C)Cn1c(=O)c(N2CCN(C(=O)c3nccc4ccccc34)CC2)nc2ccncc21 | 646 s |
| Cc1cccc(-c2ncccc2CNS(=O)(=O)c2ccc(Cl)s2)c1 | 785 s |
| Cc1oc2ccn(Cc3ccc(F)cc3)c(=O)c2c1C(=O)NCc1cccs1 | 1030 s |
| O=C(NCC1CCN(C(=O)c2cc3ccccc3o2)CC1)Nc1c(F)cccc1F | 729 s |
| Cc1ccn2cc(C(=O)NC3CCCCC3)nc2c1 | 627 s |

| SMILES | RP-LC retention time |
| --- | --- |
| CCCNC(=O)CCc1c(-c2ccc(Br)cc2)nc2ccccn12 | 624 s |
| CCOc1ccc(N2CC(c3nc4ccccc4n3CCN3CCOCC3)CC2=O)cc1 (stereo unspecified) | 618 s |
| Cc1ccccc1S(=O)(=O)N1CCC(CCC(=O)N2CCc3ccccc3C2)CC1 | 1060 s |
| Cc1ccc(-c2cc3c(N4CCC(C(=O)NC5CCCCC5)CC4)nccn3n2)c(C)c1 | 905 s |
| COc1ccc(NS(=O)(=O)c2c(C)sc(C)c2-c2cc(C(F)(F)F)on2)cc1Cl | 1180 s |
| CC(=O)Nc1nnc(SCC(=O)Nc2ccc(OC(F)(F)F)cc2)s1 | 733 s |
| NC(=O)[C@H](Cc1ccccc1)NC(=O)[C@H](Cc1ccccc1)NC(=O)[C@@H]1CCCN1C(=O)[C@@H](N)Cc1ccc(O)cc1 | 678 s |
| O=C(NCCC(c1ccccc1)c1ccccc1)c1cnc2sccn2c1=O | 847 s |
| Cc1noc([C@@H]2CN(C(=O)c3ccc(Cc4c(C)noc4C)o3)C[C@H]2C(N)=O)n1 | 631 s |
| Cc1ccc(Cl)cc1NC(=O)C1CCN(S(C)(=O)=O)c2ccccc2O1 (stereo unspecified) | 954 s |
| CCCNC(=O)C1CCCN(c2ccc(SCC(=O)Nc3cccc(Cl)c3C)nn2)C1 (stereo unspecified) | 720 s |
| CCOC(=O)c1cc(OC)c(OC)cc1NC(=O)c1cc(OC)c(OC)c(OC)c1 | 1030 s |
| Cc1ccccc1CNS(=O)(=O)c1ccc(-c2c(C)noc2C)cc1 | 959 s |
| COc1ccc(NC(=O)C2(C)Oc3cccnc3N(C)C2=O)c(OC)c1 (stereo unspecified) | 815 s |
| Cc1cccc(C)c1NC(=O)Cn1c(=O)n(Cc2ccc(F)cc2)c(=O)c2nccnc21 | 781 s |
| CSc1ccc(C2c3[nH]c4ccccc4c3CCN2C(=O)c2ccco2)cc1 (stereo unspecified) | 1140 s |
| O=C(N1CC(c2nc(-c3cccs3)no2)C1)C1(c2ccccc2)CCOCC1 | 814 s |
| CC1(C)CC(=O)c2cn(-c3ccccc3)c(=O)c(C(=O)N3CCCC3)c2C1 | 699 s |

Source: the METLIN SMRT retention time set (Domingo-Almenara et al. 2019)
